What was measured:
physchem = conditions: 25 °C, thermodynamic from solid
Procedure: Test compounds (4 mg) were added to 200 μL of one of the tested aqueous solutions (hereinafter—buffer): 100 mM aqueous HCl (pH 1) or 100 mM Na-phosphate buffer (pH 7). The obtained suspensions/solutions with the theoretical concentration of 20 mg/mL were further allowed to equilibrate at 25° C. on a thermostatic orbital shaker for 24 hours and then centrifuged at 6000 rpm for 4 minutes and filtered through HTS filter plates using a vacuum manifold. In parallel, compound dilutions in 50% acetonitrile/HCl and 30% acetonitrile/Na-phosphate buffer mixes were prepared to theoretical concentrations of 0 mg/mL (blank), 0.1 mg/mL, 0.2 mg/mL, and 0.4 mg/mL in duplicates to generate calibration curves falling within the optimum UV absorption range. The filtrates of test compounds were diluted 100-fold with acetonitrile-buffer mixtures before measuring. The filtered supernatant test samples were transferred to 96-well plates and measured for absorbance in the 200-550 nm range with 5 nm step increment. The concentrations of compounds in supernatants were calculated using the measured absorbance and the previously determined calibration curve. Proper absorbance wavelengths for calculations were selected for each compound manually based on absorbance maxima (absolute absorbance unit values for the minimum and maximum concentration points within 0-2.5 OD range).

[1] = Solubility determination (Method B), neutral water; assay type: physicochemical
Procedure: A quantity of the appropriate compound sufficient to saturate the resulting solution was added to distilled water (0.50 mL) and the mixture agitated on an orbital shaker for 2 h at room temperature (20° C.). The mixture was then centrifuged for 5 min. at 21,000×g and the supernatant was carefully removed by syringe and passed through a […] syringe filter. An aliquot (300 μL) of the filtered supernatant was concentrated in vacuo and the mass of the residual solids determined in order to calculate the solubility.

[2] = target: T1, human mu opioid receptor (MOR) (Homo sapiens, UniProt P35372); assay: BRET assay measuring G protein activation, agonist activity at human MOR; assay type: cell-based
T1 construct: expressed in transfected cells; host or cells: HEK-293T
Procedure: The diarylthiazepinamine carboxylic acids (9) were tested for agonist activity at the human mu opioid receptor (MOR) and delta opioid receptor (DOR) using bioluminescence resonance energy transfer (BRET) assays measuring G protein activation as previously described (Table 1) (Rives, M.-L. et al. 2012; Negri, A. et al. 2013).
Human MOR cDNA was transfected alongside GααB with RLuc8 inserted at position 91 (GααB—RLuc8), Gβ1 (β1), and Gγ2 fused to the full-length mVenus at its N terminus (mVenus-γ2) into HEK-293T cells (5×10^6 cells/plate) in 10-cm dishes using PEI (Polysciences Inc.; Warrington, PA) in a 1:1 ratio diluted in Opti-MEM (Life Technologies Corp.; Grand Island, NY) to assay for G protein activation as described previously (Rives, M.-L. et al. 2012; Negri, A. et al. 2013). Cells were maintained in Dulbecco's Modified Eagle Medium (high glucose #11965; Life Technologies) supplemented with 10% FBS (Premium Select, Atlanta Biologicals; Atlanta, GA) and 100 U/mL penicillin and 100 μg/mL streptomycin (#15140, Life Technologies). After 24 hours the media was changed, and the experiment was performed 24 hours later (48 hours after transfection).
Transfected cells were dissociated and re-suspended in phosphate-buffered saline (PBS). Approximately 200,000 cells/well were added to a black-framed, white well 96-well plate (#60050; Perkin Elmer; Waltham, MA). The microplate was centrifuged and the cells were re-suspended in PBS. Then 5 μM of the luciferase substrate coelenterazine H was added to each well for 5 minutes. Following coelenterazine H addition, ligands were added and the BRET signal was measured at 5 minutes on a PHERAstar FS plate reader. Quantification of the BRET signal required calculating the ratio of the light emitted by the energy acceptor, mVenus (510-540 nm), over the light emitted by the energy donor, RLuc8 (485 nm). […] Dose response curves were fit using a three-parameter logistics equation in GraphPad Prism 6.
The additional diarylthiazepinamine carboxylic acids (9i, 9j, 9k, and 91) were tested for agonist activity at the human mu opioid receptor (MOR) using bioluminescence resonance energy transfer (BRET) assays measuring G protein activation (Table 2) as previously described (Rives, M.-L. et al. 2012; Negri, A. et al. 2013; Example 2 of the present application).

male C57BL/6 mice = assay: Analgesic activity in hot plate assay; assay type: in vivo, mouse
Procedure: Male C57BL/6 mice were timed for latency to jump on a hot-plate apparatus set to 55° C., using a 30 s cutoff to prevent tissue damage. Following a baseline test, animals were injected subcutaneously (s.c.) with escalating doses of drug and tested at […] (time of maximal effect). Dose-response curves were fit via nonlinear regression using GraphPad Prism (La Jolla, CA).

T1 sequence (P35372 whole entry): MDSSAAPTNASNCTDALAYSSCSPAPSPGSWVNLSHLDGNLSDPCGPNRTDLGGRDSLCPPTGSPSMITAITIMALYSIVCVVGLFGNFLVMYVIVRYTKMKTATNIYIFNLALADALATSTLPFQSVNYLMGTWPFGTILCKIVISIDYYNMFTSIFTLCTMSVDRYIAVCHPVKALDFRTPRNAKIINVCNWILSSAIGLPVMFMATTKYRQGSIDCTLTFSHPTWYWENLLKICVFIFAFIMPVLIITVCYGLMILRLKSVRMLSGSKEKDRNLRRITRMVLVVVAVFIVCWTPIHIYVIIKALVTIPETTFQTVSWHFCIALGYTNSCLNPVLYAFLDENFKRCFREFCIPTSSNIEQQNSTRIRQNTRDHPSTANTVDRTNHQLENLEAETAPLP

## CN1c2ccccc2C(NCCCCCCC(=O)O)c2cc(F)c(I)cc2S1(=O)=O.Cl (centres unmarked) [Compound 9k, 7-((2-fluoro-3-iodo-6-methyl-5,5-dioxido-6,11-dihydrodibenzo [c,f][1,2]thiazepin-11-yl)amino) heptanoic acid hydrochloride salt]
physchem; pH 1, simulated gastric fluid
  solubility: 2700 µg/mL
physchem; pH 7, aqueous buffer
  solubility: 390 µg/mL
[1]; distilled water, thermodynamic from solid, neutral water, 20° C., Method B (2 h orbital shaker), read-out: Aqueous Solubility (mg/mL @ 20° C.)
  solubility at 2 h: 5.7 mg/mL
[1]; neutral unbuffered water
  Solubility relative to monohalo counterpart iodotianeptine: 2-3 fold
[2]
  EC50: 4.6 nM
[2]; dihalo-substituted core
  MOR potency relative to analogs lacking substitution at position 2: equipotent or more potent
Male C57BL/6 mice; Mus musculus, sc, hot plate 55° C., male C57BL/6 mice, tested at 15 post-injection
  ED50: 1.7 mg/kg
Male C57BL/6 mice; much higher potency than tianeptine
  Analgesic activity in the mouse hot plate assay: potent analgesics
